The experiment concerns the target T1, JAK3 (Homo sapiens, UniProt P52333).
T1 construct: The Ramos B-cell line was acquired from ATCC (ATCC Catalog No. CRL-1596); host or cells: Ramos B-cell line (human)
T1 sequence (P52333 1-1124): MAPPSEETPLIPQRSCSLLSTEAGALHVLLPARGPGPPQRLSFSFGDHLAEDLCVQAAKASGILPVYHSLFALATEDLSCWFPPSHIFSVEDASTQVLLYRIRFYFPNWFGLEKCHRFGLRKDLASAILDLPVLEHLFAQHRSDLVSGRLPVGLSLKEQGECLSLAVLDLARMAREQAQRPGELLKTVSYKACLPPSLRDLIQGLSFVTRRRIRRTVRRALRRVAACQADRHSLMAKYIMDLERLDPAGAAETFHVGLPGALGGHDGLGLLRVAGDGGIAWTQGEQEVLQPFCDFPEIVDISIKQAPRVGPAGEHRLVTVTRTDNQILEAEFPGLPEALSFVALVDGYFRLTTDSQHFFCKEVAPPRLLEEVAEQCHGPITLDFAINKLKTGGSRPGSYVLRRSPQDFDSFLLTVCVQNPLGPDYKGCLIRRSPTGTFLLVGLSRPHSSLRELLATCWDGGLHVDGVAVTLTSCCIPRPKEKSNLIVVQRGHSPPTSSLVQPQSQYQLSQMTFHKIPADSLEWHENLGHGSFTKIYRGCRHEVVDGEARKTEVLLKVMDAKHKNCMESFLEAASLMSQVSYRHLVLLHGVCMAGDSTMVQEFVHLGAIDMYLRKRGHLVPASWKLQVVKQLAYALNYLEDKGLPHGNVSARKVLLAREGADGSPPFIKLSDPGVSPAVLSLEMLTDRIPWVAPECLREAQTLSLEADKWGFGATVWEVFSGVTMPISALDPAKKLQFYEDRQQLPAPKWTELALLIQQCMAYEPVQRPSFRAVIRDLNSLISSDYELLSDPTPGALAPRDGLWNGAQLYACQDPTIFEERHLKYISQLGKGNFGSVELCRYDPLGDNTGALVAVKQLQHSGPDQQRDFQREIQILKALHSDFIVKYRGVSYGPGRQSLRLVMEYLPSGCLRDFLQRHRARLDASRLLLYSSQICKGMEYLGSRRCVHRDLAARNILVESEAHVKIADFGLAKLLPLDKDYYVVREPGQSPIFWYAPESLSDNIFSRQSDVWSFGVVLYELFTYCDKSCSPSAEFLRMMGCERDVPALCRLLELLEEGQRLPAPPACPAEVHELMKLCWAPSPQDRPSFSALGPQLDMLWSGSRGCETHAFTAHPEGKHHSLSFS
The experiment in a line: Assay for CD23 expression on Ramos B-cells stimulated by IL-4 (Table IV: ability to inhibit JAK3 activity). The following applies: tested under conditions described in Example 3 (so in the source). The format is cell-based. Summed up:
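Human Ramos B cells in RPMI with 5% serum, pre-incubated 1 h at 37 °C with compound or DMSO, then stimulated with IL-4 (final 50 units/mL) for 20–24 h. Surface CD23 upregulation measured by FACS staining as readout of JAK1/JAK3–Stat-6 signalling.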

Structures are written as SMILES. Structures can show the parent of a compound that is named as a salt.

In turn, `O=C(NC1CC1)c1ccc(Nc2ncc(F)c(Nc3ccc4oc(=O)[nH]c4c3)n2)cc1` [Compound I-161, N-cyclopropyl-4-(5-fluoro-4-(2-oxo-2,3-dihydrobenzo[d]oxazol-5-ylamino)pyrimidin-2-ylamino)benzamide formate salt] gave a half-inhibitory concentration (IC50) of less than 500 nM.
`CC(=O)c1ccc(Nc2ncc(F)c(Nc3ccc4oc(=O)[nH]c4c3)n2)cc1` [Compound I-157, 5-(2-(4-acetylphenylamino)-5-fluoropyrimidin-4-ylamino)benzo[d]oxazol-2(3H)-one formate salt] came in with an IC50 of less than 500 nM.
The molecule `COc1cc(Nc2ncc(Cl)c(Nc3ccc4oc(=O)[nH]c4c3)n2)ccc1C` [Compound I-32, 5-(5-chloro-2-(3-methoxy-4-methylphenylamino)pyrimidin-4-ylamino)benzo[d]oxazol-2(3H)-one trifluoroacetate salt] displayed a 50% inhibitory concentration (IC50) of less than 500 nM.
Turning to `[2H]C([2H])([2H])c1c(C)cc(Nc2ncc(C)c(Nc3ccc4oc(=O)[nH]c4c3)n2)cc1C` [Compound I-35, 5-[5-Methyl-2-(3,5-dimethyl-4-d3-methyl-phenylamino)-pyrimidin-4-ylamino]-3H-benzooxazol-2-one trifluoroacetate salt], the half-inhibitory concentration (IC50) is less than 500 nM.
For `O=c1[nH]c2cc(Nc3nc(Nc4cccc(C(O)C(F)(F)F)c4)ncc3F)ccc2o1` (stereo not shown) [Compound I-210, 5-fluoro-N2-[3-(1-hydroxy-2,2,2-trifluoroethyl)]phenyl-N4-(2-oxo-2,3-dihydro-1,3-benzoxazol-5-yl)-2,4-pyrimidinediamine], the IC50 is less than 500 nM.
On to `NC(=O)c1ccc(Nc2nccc(Nc3ccc4oc(=O)[nH]c4c3)n2)cc1` [Compound I-2, 4-(4-(2-oxo-2,3-dihydrobenzo[d]oxazol-5-ylamino)pyrimidin-2-ylamino)benzamide trifluoroacetate salt], for which the IC50 was less than 500 nM.
`COc1cccc(Nc2ncc(C)c(Nc3ccc4oc(=O)[nH]c4c3)n2)c1F` [Compound I-19, 5-[2-(2-Fluoro-3-methoxy-phenylamino)-5-methyl-pyrimidin-4-ylamino]-3H-benzooxazol-2-one] came in with an IC50 of less than 500 nM.
As for `COc1ccc(Nc2ncc(F)c(Nc3cc(C)c4oc(=O)[nH]c4c3)n2)cc1C` [Compound I-178, 5-(2-(4-methoxy-3-methylphenylamino)-5-fluoropyrimidin-4-ylamino)-7-methylbenzo[d]oxazol-2(3H)-one trifluoroacetate salt], the half-maximal inhibitory concentration (IC50) was less than 500 nM.
Under `COc1ccc(Nc2ncc(F)c(Nc3ccc4oc(=O)[nH]c4c3)n2)cc1-c1cccnc1` [Compound I-209, 5-(2-(4-methoxy-3-(pyridin-3-yl)phenylamino)-5-fluoropyrimidin-4-ylamino)benzo[d]oxazol-2(3H)-one formate salt] stands less than 500 nM; under `Cc1cnc(Nc2ccc(N(C)C)cc2)nc1Nc1ccc2oc(=O)[nH]c2c1` [Compound I-25, 5-[2-(4-Dimethylamino-phenylamino)-5-methyl-pyrimidin-4-ylamino]-3H-benzooxazol-2-one], less than 500 nM.
Take `O=c1[nH]c2cc(Nc3nc(Nc4ccc(F)c(-c5ccncc5)c4)ncc3F)ccc2o1` [Compound I-205, 5-(2-(4-fluoro-3-(pyridin-4-yl)phenylamino)-5-fluoropyrimidin-4-ylamino)benzo[d]oxazol-2(3H)-one]: the IC50 was less than 500 nM.
As to `O=c1[nH]c2cc(Nc3nc(Nc4cc(F)cc(F)c4)ncc3Cl)ccc2o1` [Compound I-14, 5-(5-chloro-2-(3,5-difluorophenylamino)pyrimidin-4-ylamino)benzo[d]oxazol-2(3H)-one trifluoroacetate salt], the IC50 was less than 500 nM.
`COc1ccc(Nc2ncc(C)c(Nc3ccc4oc(=O)[nH]c4c3)n2)c(F)c1` [Compound I-75, 5-(2-(2-fluoro-4-methoxyphenylamino)-5-methylpyrimidin-4-ylamino)benzo[d]oxazol-2(3H)-one trifluoroacetate salt]: the IC50 is less than 500 nM.

(Values after patent US11174251B2, “Compositions and methods for inhibition of the JAK pathway” (Rigel Pharmaceuticals, Inc., priority 2010, dated 2021).)
